# Experiments:
# [1] = system: platelet aggregation in whole blood; experiment: Platelet aggregation in whole blood evaluated by Multiplate; format: cell-based
# From the text: FIG. 2: MultiPlate continuously records platelet aggregation. The increase of impedance by the attachment of platelets onto the Multiplate sensors is transformed to arbitrary aggregation units (AU) and plotted against time. […] Hereby, the effect on the endothelium of PGI2 can be employed in conjunction with treatment with antithrombotic agents such as Aspirin (ASA), platelet ADP—and a platelet inhibitor, such as GPIIb/IIIa receptor antagonists without increased risk of bleeding in this high-risk population. The term “Mulitplate” refers to an applied platelet aggregometer/platelet function analyzer utilizing the analysis of whole blood. Whole blood is the physiological environment where platelet function takes place in vivo, and the use of whole blood for in-vitro testing eliminates the need for time-consuming centrifugation steps required for Born aggregation measurements. The use of a small amount of whole blood (0.3 ml per test) allows the differentiated assessment of platelet function without drawing large amounts of blood (as required for analysis of Born aggregation) and facilitates the analysis of blood from children and also in experimental settings.
# thrombus formation = experiment: Thrombus formation evaluated by viscoelastical haemostatic assay, thrombelastography (TEG); format: cell-based
# From the text: FIG. 1: Recording haemostatic activity using TEG assay. […] Hereby, the effect on the endothelium of PGI2 can be employed in conjunction with treatment with antithrombotic agents such as Aspirin (ASA), platelet ADP—and a platelet inhibitor, such as GPIIb/IIIa receptor antagonists without increased risk of bleeding in this high-risk population.
# [2] = depends on administration form and/or dosage; cited from earlier work
SMILES,effect on platelet aggregation in whole blood as evaluated by MULTIPLATE [1],effect on thrombus formation as evaluated by viscoelastical haemostatic assays such as thrombelastography (TEG) (thrombus formation),half time [2] [min]
CCCCC[C@H](O)/C=C/[C@@H]1[C@H]2C/C(=C/CCCC(=O)O)O[C@H]2C[C@H]1O [prostacyclin],does not affect platelet aggregation,does not impair thrombus formation,–
CSCCNc1nc(SCCC(F)(F)F)nc2c1ncn2[C@@H]1O[C@H](COP(=O)(O)OP(=O)(O)C(Cl)(Cl)P(=O)(O)O)[C@@H](O)[C@H]1O [cangrelor],–,–,3 to 5
CC#CCC(C)[C@H](O)/C=C/[C@@H]1[C@H]2c3cccc(CCCC(=O)O)c3O[C@H]2C[C@H]1O (mixture of isomers) [Beraprost],–,–,35 to 40
CC#CCC(C)[C@H](O)/C=C/[C@@H]1[C@H]2C/C(=C/CCCC(=O)O)C[C@H]2C[C@H]1O (some centres unmarked) [Iloprost],–,–,20 to 30

# Source: patent US20130040898A1, “METHODS OF TREATMENT OF PATIENTS AT INCREASED RISK OF DEVELOPMENT OF ISCHEMIC EVENTS AND COMPOUNDS HEREOF” (priority 2010, published 2013)
